Molecular target: T1, Human CaV2.2 channels (Homo sapiens, UniProt Q00975)
T1 construct: expressed in transfected cells
Assay: Fluorescent assay for CaV2.2 channels using potassium depolarization to induce channel opening (FLIPR, Fluo-4)
Type: cell-based
Conditions: 3 μM test compound, 30 mM KCl, HEK293 cells stably expressing human CaV2.2; read-out: %-Inhib (CaV2.2) @3 μM @30 mM KCl
In short: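 HEK293 cells stably co-expressing CaV2.2 with α2δ and β subunits plus Kir2.3 were Fluo-4 loaded, then preincubated 15 min at 25 °C with compound in 30 mM KCl buffer, pH 7.4. Depolarization was by adding buffer containing 210 mM KCl. Inhibition was taken from baseline-normalized peak fluorescence amplitude (ex 480/em 535 nm).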

T1 sequence (Q00975 whole entry): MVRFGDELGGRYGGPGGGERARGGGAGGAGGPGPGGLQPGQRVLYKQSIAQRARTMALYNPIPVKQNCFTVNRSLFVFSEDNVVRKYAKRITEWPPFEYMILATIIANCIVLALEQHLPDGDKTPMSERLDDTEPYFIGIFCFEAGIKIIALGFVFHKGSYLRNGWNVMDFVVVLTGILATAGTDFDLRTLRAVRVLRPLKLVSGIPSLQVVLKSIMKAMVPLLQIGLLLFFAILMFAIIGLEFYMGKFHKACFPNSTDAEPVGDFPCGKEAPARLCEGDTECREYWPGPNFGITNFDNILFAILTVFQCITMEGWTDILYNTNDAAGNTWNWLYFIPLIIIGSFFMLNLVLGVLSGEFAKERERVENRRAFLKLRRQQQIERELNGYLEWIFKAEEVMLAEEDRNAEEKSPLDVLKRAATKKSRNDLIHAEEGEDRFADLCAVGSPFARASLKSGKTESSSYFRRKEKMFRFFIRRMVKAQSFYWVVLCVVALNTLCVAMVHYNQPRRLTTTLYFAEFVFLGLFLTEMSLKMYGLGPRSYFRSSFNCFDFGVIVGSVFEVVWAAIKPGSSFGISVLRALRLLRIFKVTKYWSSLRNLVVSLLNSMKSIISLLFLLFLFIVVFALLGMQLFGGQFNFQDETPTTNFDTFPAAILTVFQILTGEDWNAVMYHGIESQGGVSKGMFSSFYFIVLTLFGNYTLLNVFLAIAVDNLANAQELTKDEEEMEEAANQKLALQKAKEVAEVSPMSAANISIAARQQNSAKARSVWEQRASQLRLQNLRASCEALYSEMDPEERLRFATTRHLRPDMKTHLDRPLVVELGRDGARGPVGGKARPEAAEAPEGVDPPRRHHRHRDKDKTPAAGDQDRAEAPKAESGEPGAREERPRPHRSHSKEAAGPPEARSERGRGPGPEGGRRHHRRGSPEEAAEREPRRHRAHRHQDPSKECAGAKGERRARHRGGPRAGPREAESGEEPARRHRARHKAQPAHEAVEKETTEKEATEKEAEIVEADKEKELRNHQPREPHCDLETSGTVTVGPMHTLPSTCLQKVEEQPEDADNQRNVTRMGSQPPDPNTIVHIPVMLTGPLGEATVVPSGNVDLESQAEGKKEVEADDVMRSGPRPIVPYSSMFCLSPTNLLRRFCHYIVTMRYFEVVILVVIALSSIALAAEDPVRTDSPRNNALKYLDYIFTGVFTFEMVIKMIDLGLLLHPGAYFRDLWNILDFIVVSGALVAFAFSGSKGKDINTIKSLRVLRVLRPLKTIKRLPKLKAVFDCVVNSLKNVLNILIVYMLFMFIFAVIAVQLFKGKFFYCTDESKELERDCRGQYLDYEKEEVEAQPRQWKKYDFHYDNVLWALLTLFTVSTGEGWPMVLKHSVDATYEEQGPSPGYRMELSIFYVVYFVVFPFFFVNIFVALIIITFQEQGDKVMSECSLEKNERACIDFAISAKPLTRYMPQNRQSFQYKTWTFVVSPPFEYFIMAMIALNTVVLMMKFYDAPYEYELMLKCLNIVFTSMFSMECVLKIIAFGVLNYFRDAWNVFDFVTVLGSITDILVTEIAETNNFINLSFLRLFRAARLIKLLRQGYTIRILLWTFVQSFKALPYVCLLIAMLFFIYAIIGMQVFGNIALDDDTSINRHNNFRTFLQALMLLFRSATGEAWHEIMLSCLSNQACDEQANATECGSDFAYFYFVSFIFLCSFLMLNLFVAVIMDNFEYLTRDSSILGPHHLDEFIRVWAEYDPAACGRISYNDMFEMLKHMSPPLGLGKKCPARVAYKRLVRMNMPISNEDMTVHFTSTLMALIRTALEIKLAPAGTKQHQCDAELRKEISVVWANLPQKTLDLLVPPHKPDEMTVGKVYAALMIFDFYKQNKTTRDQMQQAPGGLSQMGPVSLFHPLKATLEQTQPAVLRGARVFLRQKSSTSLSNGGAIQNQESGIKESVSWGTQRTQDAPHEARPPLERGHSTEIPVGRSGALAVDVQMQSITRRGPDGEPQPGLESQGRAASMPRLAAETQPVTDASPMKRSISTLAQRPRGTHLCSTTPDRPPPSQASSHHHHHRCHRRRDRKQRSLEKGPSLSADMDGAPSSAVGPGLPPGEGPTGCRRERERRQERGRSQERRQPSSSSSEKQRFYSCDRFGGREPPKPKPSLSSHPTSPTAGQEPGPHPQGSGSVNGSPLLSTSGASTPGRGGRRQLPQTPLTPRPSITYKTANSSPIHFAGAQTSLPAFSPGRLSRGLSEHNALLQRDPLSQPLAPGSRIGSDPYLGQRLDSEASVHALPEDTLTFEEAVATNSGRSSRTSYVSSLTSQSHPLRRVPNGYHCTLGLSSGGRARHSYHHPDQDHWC
T1 sequence (P54289 25-1103, further chain): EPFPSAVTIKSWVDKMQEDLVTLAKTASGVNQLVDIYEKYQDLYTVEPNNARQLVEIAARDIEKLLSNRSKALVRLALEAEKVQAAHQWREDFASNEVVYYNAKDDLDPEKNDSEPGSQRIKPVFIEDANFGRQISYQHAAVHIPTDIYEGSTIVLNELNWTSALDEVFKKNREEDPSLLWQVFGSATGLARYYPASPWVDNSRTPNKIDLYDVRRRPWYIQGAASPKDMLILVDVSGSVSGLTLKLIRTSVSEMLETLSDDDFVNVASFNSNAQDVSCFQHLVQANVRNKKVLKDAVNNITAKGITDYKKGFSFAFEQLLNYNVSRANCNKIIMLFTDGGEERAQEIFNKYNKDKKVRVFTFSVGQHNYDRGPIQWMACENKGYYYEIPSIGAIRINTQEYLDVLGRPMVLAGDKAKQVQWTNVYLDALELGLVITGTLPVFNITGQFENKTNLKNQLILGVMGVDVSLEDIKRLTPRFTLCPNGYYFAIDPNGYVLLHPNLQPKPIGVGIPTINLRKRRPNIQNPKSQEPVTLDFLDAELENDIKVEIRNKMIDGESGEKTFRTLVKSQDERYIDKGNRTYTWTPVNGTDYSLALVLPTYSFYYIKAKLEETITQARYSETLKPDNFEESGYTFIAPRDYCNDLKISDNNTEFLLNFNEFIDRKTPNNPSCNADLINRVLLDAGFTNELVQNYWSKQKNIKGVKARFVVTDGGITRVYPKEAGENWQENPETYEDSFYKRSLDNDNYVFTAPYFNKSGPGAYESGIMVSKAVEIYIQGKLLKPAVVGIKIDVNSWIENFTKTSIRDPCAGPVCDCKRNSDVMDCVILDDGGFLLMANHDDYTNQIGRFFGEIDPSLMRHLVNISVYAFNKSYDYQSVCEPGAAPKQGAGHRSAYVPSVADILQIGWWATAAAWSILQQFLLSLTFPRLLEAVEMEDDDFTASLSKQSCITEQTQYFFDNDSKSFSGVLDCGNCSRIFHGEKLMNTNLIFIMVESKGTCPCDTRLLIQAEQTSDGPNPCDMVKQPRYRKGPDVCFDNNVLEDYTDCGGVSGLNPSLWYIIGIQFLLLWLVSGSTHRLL
T1 sequence (P54284 whole entry, further chain): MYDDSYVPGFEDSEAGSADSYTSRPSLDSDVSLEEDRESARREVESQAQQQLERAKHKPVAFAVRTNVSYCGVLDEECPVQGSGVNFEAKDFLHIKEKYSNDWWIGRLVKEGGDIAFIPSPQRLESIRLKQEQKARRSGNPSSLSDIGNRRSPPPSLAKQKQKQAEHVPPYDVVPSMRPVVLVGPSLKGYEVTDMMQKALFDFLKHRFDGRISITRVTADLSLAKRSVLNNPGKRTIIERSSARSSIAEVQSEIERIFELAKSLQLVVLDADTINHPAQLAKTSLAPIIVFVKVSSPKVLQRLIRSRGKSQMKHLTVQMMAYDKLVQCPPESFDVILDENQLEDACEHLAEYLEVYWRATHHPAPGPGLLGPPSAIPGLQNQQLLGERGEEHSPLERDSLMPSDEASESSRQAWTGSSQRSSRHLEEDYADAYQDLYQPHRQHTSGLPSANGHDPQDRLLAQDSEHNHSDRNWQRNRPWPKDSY

Row | Structure (SMILES) | inhibition at 3 µM [%]
1 | COC1CCN(C(=O)c2c(-c3ccc(Cl)cc3)c(C)c(C(F)(F)F)n2Cc2ccccc2)CC1 [SC-145, [1-Benzyl-3-(4-chlorophenyl)-4-methyl-5-(trifluoromethyl)-1H-pyrrol-2-yl]-(4-methoxy-piperidin-1-yl)-methanone] | > 95
2 | Cc1c(-c2ccc(Cl)cc2)c(C(=O)N(C)C2CC2)n(Cc2ccccc2)c1C(F)(F)F [SC-34, 1-Benzyl-3-(4-chlorophenyl)-N-cyclopropyl-N,4-dimethyl-5-(trifluoromethyl)-1H-pyrrole-2-carboxylic acid amide] | > 95
3 | Cc1cnc(CN(C)C(=O)c2c(-c3ccc(Cl)cc3)cc(C(F)(F)F)n2Cc2ccccc2)cn1 [SC-215, 1-Benzyl-3-(4-chlorophenyl)-N-methyl-N-[(5-methyl-pyrazin-2-yl)-methyl]-5-(trifluoromethyl)-1H-pyrrole-2-carboxylic acid amide] | > 95
4 | CN(CC1CCCO1)C(=O)c1c(-c2ccc(Cl)cc2)cc(C(F)(F)F)n1Cc1ccccc1 (stereo not drawn) [SC-197, 1-Benzyl-3-(4-chlorophenyl)-N-methyl-N-(tetrahydro-furan-2-yl-methyl)-5-(trifluoromethyl)-1H-pyrrole-2-carboxylic acid amide] | > 95
5 | O=C(c1c(-c2ccc(Cl)cc2)cc(C(F)(F)F)n1Cc1ccccc1)N1CC(O)C1 [SC-72, [1-Benzyl-3-(4-chlorophenyl)-5-(trifluoromethyl)-1H-pyrrol-2-yl]-(3-hydroxy-azetidin-1-yl)-methanone] | 75 to 95
6 | CC(CS(C)(=O)=O)N(C)C(=O)c1c(-c2ccc(Cl)cc2)cc(C(F)(F)F)n1Cc1ccccc1 (stereo not drawn) [SC-198, 1-Benzyl-3-(4-chlorophenyl)-N-methyl-N-(1-methyl-2-methylsulfonyl-ethyl)-5-(trifluoromethyl)-1H-pyrrole-2-carboxylic acid amide] | > 95
7 | Cc1c(-c2ccc(Cl)cc2F)c(C(=O)NCCS(C)(=O)=O)n(Cc2ccccc2)c1C(F)(F)F [SC-163, 1-Benzyl-3-(4-chloro-2-fluoro-phenyl)-4-methyl-N-(2-methylsulfonyl-ethyl)-5-(trifluoromethyl)-1H-pyrrole-2-carboxylic acid amide] | > 95
8 | Cc1c(-c2ccc(Cl)c(F)c2)c(C(=O)N2CC(O)C2)n(Cc2ccccc2)c1C(F)(F)F [SC-247, [1-Benzyl-3-(4-chloro-3-fluoro-phenyl)-4-methyl-5-(trifluoromethyl)-1H-pyrrol-2-yl]-(3-hydroxy-azetidin-1-yl)-methanone] | 40 to 75
9 | CC1(C)CN(C(=O)c2c(-c3ccc(Cl)cc3)cc(C(F)(F)F)n2Cc2ccccc2)CCN1 [SC-82, [1-Benzyl-3-(4-chlorophenyl)-5-(trifluoromethyl)-1H-pyrrol-2-yl]-(3,3-dimethyl-piperazin-1-yl)-methanone] | 75 to 95
10 | CN(CC(C)(C)CN1CCOCC1)C(=O)c1c(-c2ccc(Cl)cc2)cc(C(F)(F)F)n1Cc1ccccc1 [SC-180, 1-Benzyl-3-(4-chlorophenyl)-N-(2,2-dimethyl-3-morpholin-4-yl-propyl)-N-methyl-5-(trifluoromethyl)-1H-pyrrole-2-carboxylic acid amide] | 75 to 95
11 | Cc1c(-c2ccc(Cl)cc2)c(C(=O)N(C)C(C)(C)CCO)n(Cc2ccccc2)c1C(F)(F)F [SC-122, 1-Benzyl-3-(4-chlorophenyl)-N-(3-hydroxy-1,1-dimethyl-propyl)-N,4-dimethyl-5-(trifluoromethyl)-1H-pyrrole-2-carboxylic acid amide] | > 95
12 | Cc1c(-c2ccc(Cl)c(F)c2)c(C(=O)N2CCOC(C)(C)C2)n(Cc2ccccc2)c1C(F)(F)F [SC-249, [1-Benzyl-3-(4-chloro-3-fluoro-phenyl)-4-methyl-5-(trifluoromethyl)-1H-pyrrol-2-yl]-(2,2-dimethyl-morpholin-4-yl)-methanone] | 75 to 95
13 | Cc1c(-c2ccc(Cl)cc2F)c(C(=O)N(C)CC(C)(C)CO)n(Cc2ccccc2)c1C(F)(F)F [SC-107, 1-Benzyl-3-(4-chloro-2-fluoro-phenyl)-N-(3-hydroxy-2,2-dimethyl-propyl)-N,4-dimethyl-5-(trifluoromethyl)-1H-pyrrole-2-carboxylic acid amide] | > 95
14 | Cc1nnc(CN(C)C(=O)c2c(-c3ccc(Cl)cc3)c(C)c(C(F)(F)F)n2Cc2ccccc2)o1 [SC-143, 1-Benzyl-3-(4-chlorophenyl)-N,4-dimethyl-N-[(5-methyl-[1,3,4]oxadiazol-2-yl)-methyl]-5-(trifluoromethyl)-1H-pyrrole-2-carboxylic acid amide] | > 95
15 | Cc1c(-c2ccc(Cl)cc2)c(C(=O)N2CCNC(=O)C2)n(Cc2ccccc2)c1C(F)(F)F [SC-08, 4-[1-Benzyl-3-(4-chlorophenyl)-4-methyl-5-(trifluoromethyl)-1H-pyrrole-2-carbonyl]-piperazin-2-one] | 75 to 95
16 | Cc1c(-c2ccc(OC(F)(F)F)cc2)c(C(=O)N2CCOCC2)n(Cc2ccccc2)c1C(F)(F)F [SC-105, [1-Benzyl-4-methyl-5-(trifluoromethyl)-3-[4-(trifluoromethyloxy)-phenyl]-1H-pyrrol-2-yl]-morpholin-4-yl-methanone] | 75 to 95
17 | CN(C(=O)c1c(-c2ccc(Cl)cc2)cc(C(F)(F)F)n1Cc1ccccc1)C(CO)C(C)(C)C (stereo not drawn) [SC-186, 1-Benzyl-3-(4-chlorophenyl)-N-[1-(hydroxymethyl)-2,2-dimethyl-propyl]-N-methyl-5-(trifluoromethyl)-1H-pyrrole-2-carboxylic acid amide] | > 95
18 | Cc1c(-c2ccc(Cl)cc2)c(C(=O)N(C)CCS(C)(=O)=O)n(Cc2cccc(Cl)c2)c1C(F)(F)F [SC-56, 3-(4-Chlorophenyl)-1-[(3-chlorophenyl)-methyl]-N,4-dimethyl-N-(2-methylsulfonyl-ethyl)-5-(trifluoromethyl)-1H-pyrrole-2-carboxylic acid amide] | > 95
19 | Cc1c(-c2ccc(Cl)cc2F)c(C(=O)N2CCS(=O)(=O)C(C)(C)C2)n(Cc2ccccc2)c1C(F)(F)F [SC-170, [1-Benzyl-3-(4-chloro-2-fluoro-phenyl)-4-methyl-5-(trifluoromethyl)-1H-pyrrol-2-yl]-(2,2-dimethyl-1,1-dioxo-[1,4]thiazinan-4-yl)-methanone] | > 95
20 | CN(CC(C)(C)O)C(=O)c1c(-c2ccc(Cl)cc2F)cc(C(F)(F)F)n1Cc1ccccc1 [SC-87, 1-Benzyl-3-(4-chloro-2-fluoro-phenyl)-N-(2-hydroxy-2-methyl-propyl)-N-methyl-5-(trifluoromethyl)-1H-pyrrole-2-carboxylic acid amide] | > 95
21 | Cc1c(-c2ccc(F)c(Cl)c2)c(C(=O)N(C)CC(C)(C)CO)n(Cc2ccccc2)c1C(F)(F)F [SC-251, 1-Benzyl-3-(3-chloro-4-fluoro-phenyl)-N-(3-hydroxy-2,2-dimethyl-propyl)-N,4-dimethyl-5-(trifluoromethyl)-1H-pyrrole-2-carboxylic acid amide] | 75 to 95
22 | CN(Cc1ccncn1)C(=O)c1c(-c2ccc(Cl)cc2)cc(C(F)(F)F)n1Cc1ccccc1 [SC-207, 1-Benzyl-3-(4-chlorophenyl)-N-methyl-N-(pyrimidin-4-yl-methyl)-5-(trifluoromethyl)-1H-pyrrole-2-carboxylic acid amide] | > 95
23 | CN(C(=O)c1c(-c2ccc(Cl)cc2)cc(C(F)(F)F)n1Cc1ccccc1)C(C)(C)C [SC-77, 1-Benzyl-N-tert-butyl-3-(4-chlorophenyl)-N-methyl-5-(trifluoromethyl)-1H-pyrrole-2-carboxylic acid amide] | 75 to 95
24 | Cc1c(-c2ccc(Cl)cc2)c(C(=O)N(C)C2(CO)CC2)n(Cc2ccccc2)c1C(F)(F)F [SC-48, 1-Benzyl-3-(4-chlorophenyl)-N-[1-(hydroxymethyl)-cyclopropyl]-N,4-dimethyl-5-(trifluoromethyl)-1H-pyrrole-2-carboxylic acid amide] | > 95
25 | CN(CCC(C)(C)C)C(=O)c1c(-c2ccc(Cl)cc2)cc(C(F)(F)F)n1Cc1ccccc1 [SC-84, 1-Benzyl-3-(4-chlorophenyl)-N-(3,3-dimethyl-butyl)-N-methyl-5-(trifluoromethyl)-1H-pyrrole-2-carboxylic acid amide] | 40 to 75
26 | Cc1c(-c2ccc(Cl)cc2F)c(C(=O)N(C)CC(C)(C)C)n(Cc2ccccc2)c1C(F)(F)F [SC-59, 1-Benzyl-3-(4-chloro-2-fluoro-phenyl)-N-(2,2-dimethyl-propyl)-N,4-dimethyl-5-(trifluoromethyl)-1H-pyrrole-2-carboxylic acid amide] | > 95
27 | Cc1c(-c2ccc(F)c(Cl)c2)c(C(=O)N2CCOCC2)n(Cc2ccccc2)c1C(F)(F)F [SC-104, [1-Benzyl-3-(3-chloro-4-fluoro-phenyl)-4-methyl-5-(trifluoromethyl)-1H-pyrrol-2-yl]-morpholin-4-yl-methanone] | 75 to 95
28 | Cc1cnc(CN(C)C(=O)c2c(-c3ccc(Cl)cc3)c(C)c(C(F)(F)F)n2Cc2ccccc2)cn1 [SC-151, 1-Benzyl-3-(4-chlorophenyl)-N,4-dimethyl-N-[(5-methyl-pyrazin-2-yl)-methyl]-5-(trifluoromethyl)-1H-pyrrole-2-carboxylic acid amide] | > 95
29 | CCS(=O)(=O)CCN(C)C(=O)c1c(-c2ccc(Cl)cc2)cc(C(F)(F)F)n1Cc1ccccc1 [SC-192, 1-Benzyl-3-(4-chlorophenyl)-N-[2-(ethylsulfonyl)-ethyl]-N-methyl-5-(trifluoromethyl)-1H-pyrrole-2-carboxylic acid amide] | > 95
30 | CN(CC1(CO)CCC1)C(=O)c1c(-c2ccc(Cl)cc2)cc(C(F)(F)F)n1Cc1ccccc1 [SC-179, 1-Benzyl-3-(4-chlorophenyl)-N-[[1-(hydroxymethyl)-cyclobutyl]-methyl]-N-methyl-5-(trifluoromethyl)-1H-pyrrole-2-carboxylic acid amide] | > 95

Reference: US9302988B2, “Fluoromethyl-substituted pyrrole carboxamides” (GRÜNENTHAL GMBH, priority 2012, dated 2016)
